Measurements from patent publication US20220017541A1, “INHIBITORS OF ARGINASE” (Black Belt Tx Ltd, priority 2018, published 2022).

Tests used:
[1] = target: T1, recombinant human ARG1 (Homo sapiens, UniProt P05089); experiment: Arginase enzymatic assay in vitro, recombinant human ARG1 (colorimetric urea detection); type: biochemical; details: recombinant human arginase 1; read-out: IC50 Inh rhARG1
T1 construct: purchased R&D System 5868-AR-010
T1 sequence (P05089 1-322): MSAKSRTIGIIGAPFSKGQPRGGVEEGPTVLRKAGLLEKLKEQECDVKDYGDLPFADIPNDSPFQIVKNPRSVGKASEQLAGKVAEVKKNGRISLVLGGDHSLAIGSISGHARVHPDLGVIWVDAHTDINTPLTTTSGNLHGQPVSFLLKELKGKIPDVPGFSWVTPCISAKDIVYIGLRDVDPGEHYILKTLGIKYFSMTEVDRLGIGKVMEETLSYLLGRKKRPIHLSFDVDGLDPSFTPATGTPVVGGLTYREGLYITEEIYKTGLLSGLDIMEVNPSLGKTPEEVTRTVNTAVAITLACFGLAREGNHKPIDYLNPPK
Source text: (§1) Arginase catalyzes the hydrolysis of L-arginine into L-ornithine and urea. Urea amount produced by this reaction can be detected using a colorimetric assay and used as an indirect measurement of arginase activity. An adapted protocol from (Baggio, R., et al., J Pharmacol Exp Ther, 1999. 290(3): p. 1409-16) was used for the testing the ability of exemplary compounds of the invention to inhibit arginase enzymes from a variety of sources including recombinant human ARG1 and 2, lysates of human red blood cells (RBC) and intact murine macrophages, as described below.
(§2) Compounds of the invention were prepared from powder as 10 mM stock solutions in DMSO and stored in presence of N2 neutral atmosphere at −80° C. For IC50 determination and just before the assay, exemplary compounds were successively diluted to get the following concentrations: 210, 70, 21, 7, 2.1, 0.7, 0.21, 0.07, 0.021, 0.007, 0.0021 and 0.0007 μM (i.e., final concentrations in the wells of 30, 10, 3, 1, 0.3, 0.1, 0.03, 0.01, 0.003, 0.001, 0.0003, 0.0001 μM).
(§3) Assays were run in clear flat bottom 96-well plates (Nunclon, Cat. No. #167008) adding in each well the following solutions in this order: (1) 10 μl of Tris-HCl solution supplemented with 0.1% bovine serum albumin (BSA) containing 1.563 μg/ml recombinant human ARG1 (R&D System, Cat. No. #5868-AR-010), (2) 30 μl of Tris-HCl buffer containing 10 mM MnCl2 and (3) 10 μL of a pre-dilution of each test article or DMSO (vehicle). Compounds were allowed to interact with the enzyme-cofactor complex pre-incubating the plate at 37° C. for 30 min. To start the reaction, 20 μl of 50 mM L-arginine (Sigma Aldrich Cat. #A5006-100G) were added to each well in exception of the blank reaction (see below). All reactions were allowed to happen for 1 h at 37° C. To detect the urea production, reactions were stopped by adding 200 μl of a mixture of reagent A (4 mM o-phthalaldehyde in 50 mM Boric Acid, 1 M Sulfuric Acid, 0.03% Brij-35 (w/v)) and reagent B (4 mM N-(1-naphthyl)ethylenediamine in 50 mM Boric Acid, 1 M Sulfuric Acid, 0.03% Brij-35 (w/v)) in equal proportion. Color product was developed for 1 h at room temperature (RT) protected from light and then absorbance at 520 nm was measured using a Multifunction Microplate Reader (Synergy 4, Bioteck). Blank reactions were carried out by adding the L-arginine substrate only after the addition of mixture A-B. All reactions were carried out in duplicates.
(§4) The inhibition of urea production was calculated subtracting the absorbance from the blank reaction (zero enzymatic urea production) to the absorbance from all reactions and it was expressed as the percentage of the absorbance from the reaction containing the test article with respect to the absorbance from vehicle reaction (maximum of urea production).

[2] = target: T2, recombinant human ARG2 (Homo sapiens, UniProt P78540); experiment: Arginase enzymatic assay in vitro, recombinant human ARG2 (colorimetric urea detection); type: biochemical; details: recombinant human arginase 2; read-out: IC50 Inh rhARG2
T2 construct: purchased BPS Bioscience 71659
T2 sequence (P78540 23-354): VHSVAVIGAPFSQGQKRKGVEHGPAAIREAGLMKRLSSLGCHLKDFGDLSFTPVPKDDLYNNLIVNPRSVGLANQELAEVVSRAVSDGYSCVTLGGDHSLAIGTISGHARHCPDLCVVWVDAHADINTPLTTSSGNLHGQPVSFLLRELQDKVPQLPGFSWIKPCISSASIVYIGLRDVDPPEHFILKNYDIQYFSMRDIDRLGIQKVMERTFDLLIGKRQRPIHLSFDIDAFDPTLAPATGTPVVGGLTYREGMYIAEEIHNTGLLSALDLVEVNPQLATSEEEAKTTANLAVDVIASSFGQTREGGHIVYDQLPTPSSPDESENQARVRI
Source text: as §1, §2, §3, §4
For testing inhibitory activity over recombinant human arginase II, 10 μl of Tris-HCl solution supplemented with 0.1% BSA containing 1.5 μg/ml recombinant human ARG2 (BPS Bioscience, Cat. No. #71659) was used instead of ARG1.

[3] = target: T3, native ARG1 enzyme in lysates of RBC (Homo sapiens, UniProt P05089); experiment: Arginase enzymatic assay in RBC lysates from healthy donors; type: biochemical; details: human red blood cell lysates; read-out: IC50 Inh RBC
T3 construct: native ARG1 enzyme in lysates of RBC; from tissue; host or cells: human red blood cell lysates from healthy donors
T3 sequence (P05089 1-322): T1 sequence (P05089 1-322)
Source text: as §1, §2, §3, §4
For testing inhibitory activity over RBC lysates from healthy donors, 10 μl of Tris-HCl solution supplemented with 0.1% BSA containing 160 μg RBC lysates per well was used instead.

[4] = target: T4, arginase activity in intact BMM-M2 cells (Mus musculus, UniProt Q61176); experiment: Cell-based arginase assay: urea production by cultured BMM-M2 cells; details: 10 μM test compound, 24 h, read-out: Inh. urea production @10 μM (%)
T4 construct: endogenous in cells; host or cells: bone-marrow derived macrophages from male C57BL/6 mice, polarised to M2 with IL-4
T4 sequence (Q61176 1-323): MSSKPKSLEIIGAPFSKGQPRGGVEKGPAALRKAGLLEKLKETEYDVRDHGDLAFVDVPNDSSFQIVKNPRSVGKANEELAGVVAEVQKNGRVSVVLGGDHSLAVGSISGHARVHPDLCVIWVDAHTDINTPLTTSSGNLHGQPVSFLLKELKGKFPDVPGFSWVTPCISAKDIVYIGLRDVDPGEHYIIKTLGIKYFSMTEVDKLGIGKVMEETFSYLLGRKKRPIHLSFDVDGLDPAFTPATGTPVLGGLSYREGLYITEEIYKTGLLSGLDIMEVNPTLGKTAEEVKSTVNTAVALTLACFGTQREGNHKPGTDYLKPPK
Description: Murine bone-marrow derived macrophages (BMM) represent a convenient in vitro model that enables differentiation of these cells towards M1 or M2 macrophages. Briefly, male C57BL/6 mice 7-8 weeks old were euthanized by carbon dioxide asphyxiation. Femur and tibiae bones were removed under aseptic conditions and collected in a plate containing sterile ice-cold PBS 1×. After sterilization of bones in 70% ethanol during 1 min, bones were placed into a clean Petri dish containing fresh sterile ice-cold PBS 1×. The ends of each bone were cut and the marrow cavity was flushed using forceps and syringes filled with pre-warmed complete α-MEM growing medium (α-MEM without red phenol (Life Technologies, Cat. No. #41061-029) supplemented with 10% FBS, penicillin and streptomycin). Bone marrow (BM) cells were harvested in a 15 ml clean tube and centrifuged at 400 g for 8 min at RT. Supernatant was discarded and BM pellet was re-suspended in 5 ml Ammonium-Chloride-Potassium (ACK) buffer for 5 minutes at RT to lysis RBC. BM cell suspension was centrifuged at 400 g for 8 min at RT. Supernatant was discarded and BM cell pellet was re-suspended in complete α-MEM growing medium and passed through a 70 μm cell restrainer to eliminate solid contaminates and cellular aggregates. BM cells were seeded in 8 ml of complete α-MEM growing medium supplemented with 100 ng/ml recombinant mouse M-CSF (R&D Systems, Cat. No. #416-ML-050) in 100-mm dishes. BM cells were cultured overnight to get rid of contaminating stromal cells in a humidified incubator with 5% CO2 at 37° C. At the following day, non-adherent cells were collected in a clean 15-ml tube and centrifuged at 400 g for 8 min at RT. Cell pellet was re-suspended in complete α-MEM growing medium and counted using a hemocytometer Neubauer's chamber. Hematopoietic precursor cells were differentiated into BMM in presence of complete α-MEM growing medium supplemented 50 ng/ml M-CSF for 3 days. Finally to polarize BMM towards M2 phenotype, cells were incubated in presence 20 ng/ml of recombinant mouse IL-4 (R&D Systems, Cat. No. #404-ML-010) added to fresh complete α-MEM growing medium supplemented 50 ng/ml M-CSF for 24 h.
At the day of the experiment, BMM-M2 were treated for 24 h with vehicle (DMSO) or compounds of the invention at 1 and 10 μM prepared in fresh complete α-MEM growing medium supplemented 50 ng/ml M-CSF, 20 ng/ml IL-4 and 10 mM L-arginine (Cat. No. #A5006, Sigma Aldrich). At the next day, 70 μl aliquots of each treated culture media (supernatants) were transferred into a clear 96-well plate. Measurements of urea produced by BMM-M2 were performed using the adapted protocol detailed in Example B1. Wells without BMM-M2 containing only treatment media (vehicle) were used to determine the zero cell-derived urea production (blank). All treatments were carried out in triplicates.
The inhibition of urea production was calculated subtracting the absorbance from the blank to the absorbance from all treatments and it was expressed as the percentage of the absorbance from the reaction containing the test article treatment with respect to the absorbance from vehicle treatment (maximum of urea production).

| IC50 [1] [µM] | IC50 [2] [µM] | IC50 [3] [µM] | inhibition at 10 µM [4] [%] | Structure (SMILES) |
| --- | --- | --- | --- | --- |
| < 0.5 | < 0.5 | < 0.5 | – | NC(CCCCB(O)O)(C(=O)O)C1CCN(C2CCCc3cccnc32)CC1 (single isomer, unassigned) [Compound 32, 2-amino-6-borono-2-(1-(5,6,7,8-tetrahydroquinolin-8-yl)piperidin-4-yl)hexanoic acid] |
| < 0.5 | 0.5 to 5 | – | > 25 | CC(c1c(Cl)cccc1Cl)N1CCC(C(N)(CCCCB(O)O)C(=O)O)CC1 (single isomer, unassigned) [Compound 91, 2-amino-6-borono-2-(1-(1-(2,6-dichlorophenyl)ethyl)piperidin-4-yl)hexanoic acid] |
| 0.5 to 5 | 0.5 to 5 | – | < 15 | CC(c1c(F)cccc1F)N1CCC(C(N)(CCCCB(O)O)C(=O)O)CC1 (single isomer, unassigned) [Compound 92, 2-amino-6-borono-2-(1-(1-(2,6-difluorophenyl)ethyl)piperidin-4-yl)hexanoic acid] |
| < 0.5 | < 0.5 | < 0.5 | – | NC(CCCCB(O)O)(C(=O)O)C1CCN(C2CCCc3cc(Cl)ccc32)CC1 (stereo not drawn) [Compound 16, 2-amino-6-borono-2-(1-(6-chloro-1,2,3,4-tetrahydronaphthalen-1-yl)piperidin-4-yl)hexanoic acid] |
| 0.5 to 5 | 0.5 to 5 | – | < 15 | NC(CCCCB(O)O)(C(=O)O)C1CCN(C2CCCc3cc(Cl)ccc32)C1 (stereo not drawn) [Compound 48, 2-amino-6-borono-2-[1-(6-chlorotetralin-1-yl)pyrrolidin-3-yl]hexanoic acid] |
| 0.5 to 5 | 0.5 to 5 | < 0.5 | – | NC(=O)C(N)(CCCCB(O)O)C1CCN(C2CCc3cc(Cl)ccc32)CC1 (stereo not drawn) [Compound 81, (5,6-diamino-5-(1-(5-chloro-2,3-dihydro-1H-inden-1-yl)piperidin-4-yl)-6-oxohexyl)boronic acid] |
| < 0.5 | 0.5 to 5 | – | > 25 | NC(CCCCB(O)O)(C(=O)O)C1CCN(C2CCc3cc(Cl)ccc32)C1 (stereo not drawn) [Compound 82, 2-amino-6-borono-2-[1-(5-chloroindan-1-yl)pyrrolidin-3-yl]hexanoic acid] |
